What was measured:
[1] = parameters: method as in PMID 31869735; settings: Ga complex; cited from earlier work
[2] = Biodistribution study in normal mice; assay type: in vivo; settings: ddY mice, i.v.
Protocol: The animal experimental protocols used were approved by the Committee on Animal Experimentation of Kanazawa University (AP-204165). All experiments with animals were conducted in strict accordance with the Guidelines for the Care and Use of Laboratory Animals of Kanazawa University. Mice were housed together in individually ventilated cages with three mice per cage. The animals were housed at 23°C with a 12 h light/dark schedule with free access to a standardized mouse diet and provided drinking water ad libitum water. Autoclaved wood chips were applied as bedding material. The behavior of the mice during the experimental period was normal. Seventy-five ddY mice (male; 6-week-old; 29–33 g) were purchased from Japan SLC Inc., Hamamatsu, Japan. The mice were randomly divided into five groups (n = 15 mice per group) with five different time points for each group (n = 3 mice per time point).
Radiotracers, [^67Ga]5, [^67Ga]6, [^67Ga]7, or [^67Ga]8, in saline containing 5% ethanol and 0.1% tween-80, or [^123I]BMIPP (74 kBq/100 μL, respectively) was intravenously injected into mice via the tail. The ddY mice were sacrificed by decapitation at 0.5, 2, 5, 20, and 60 min. Tissues of interest were removed and weighed. The radioactivity of the tissues was determined using an auto well gamma counter. The data were expressed as percent injected dose per gram tissue (%ID/g).

O=C([O-])CN1CCN(CC(=O)[O-])CCN(CC(=O)O)CCN(CC(=O)[O-])CC1.[Ga+3] [Ga-DOTA]
Stability constant (log K) [1]: 21.3

CC(CCCCCCCCCCCCc1ccc([123I])cc1)CC(=O)O (stereo not drawn) [[^123I]BMIPP, β-methyl [^123I]iodophenyl-pentadecanoic acid]
Blood radioactivity ([2]; 0.5 min after injection): 20.30 (1.55) %ID/g
Bone radioactivity ([2]; 0.5 min after injection): 2.63 (0.33) %ID/g
Brain radioactivity ([2]; 0.5 min after injection): 0.51 (0.11) %ID/g
Kidney radioactivity ([2]; 0.5 min after injection): 5.21 (0.42) %ID/g
Large intestine radioactivity ([2]; 0.5 min after injection): 0.42 (0.07) %ID/g
Liver radioactivity ([2]; 0.5 min after injection): 12.44 (2.40) %ID/g
Lung radioactivity ([2]; 0.5 min after injection): 24.09 (4.19) %ID/g
Muscle radioactivity ([2]; 0.5 min after injection): 2.85 (0.69) %ID/g
Pancreas radioactivity ([2]; 0.5 min after injection): 2.43 (0.68) %ID/g
Small intestine radioactivity ([2]; 0.5 min after injection): 0.91 (0.15) %ID/g
Spleen radioactivity ([2]; 0.5 min after injection): 4.91 (1.27) %ID/g
Stomach radioactivity ([2]; 0.5 min after injection): 0.60 (0.11) %ID/organ
Heart uptake ([2]; 0.5 min after injection (initial myocardial uptake)): 21.36 (2.73) %ID/g
Blood radioactivity ([2]; 2 min after injection): 6.01 (0.74) %ID/g
Bone radioactivity ([2]; 2 min after injection): 1.97 (0.03) %ID/g
Brain radioactivity ([2]; 2 min after injection): 0.22 (0.03) %ID/g
Heart uptake ([2]; 2 min after injection): 27.60 (3.15) %ID/g
Kidney radioactivity ([2]; 2 min after injection): 5.27 (0.61) %ID/g
Large intestine radioactivity ([2]; 2 min after injection): 0.68 (0.14) %ID/g
Liver radioactivity ([2]; 2 min after injection): 21.35 (0.89) %ID/g
Lung radioactivity ([2]; 2 min after injection): 15.88 (1.94) %ID/g
Muscle radioactivity ([2]; 2 min after injection): 3.24 (0.49) %ID/g
Pancreas radioactivity ([2]; 2 min after injection): 6.11 (1.90) %ID/g
Small intestine radioactivity ([2]; 2 min after injection): 1.33 (0.23) %ID/g
Spleen radioactivity ([2]; 2 min after injection): 3.76 (1.18) %ID/g
Stomach radioactivity ([2]; 2 min after injection): 0.70 (0.17) %ID/organ
Blood radioactivity ([2]; 5 min after injection): 6.75 (1.07) %ID/g
Bone radioactivity ([2]; 5 min after injection): 2.29 (0.27) %ID/g
Brain radioactivity ([2]; 5 min after injection): 0.25 (0.03) %ID/g
Heart uptake ([2]; 5 min after injection): 28.03 (5.37) %ID/g
Kidney radioactivity ([2]; 5 min after injection): 5.93 (1.23) %ID/g
Large intestine radioactivity ([2]; 5 min after injection): 0.66 (0.11) %ID/g
Liver radioactivity ([2]; 5 min after injection): 16.33 (4.41) %ID/g
Lung radioactivity ([2]; 5 min after injection): 16.87 (3.08) %ID/g
Muscle radioactivity ([2]; 5 min after injection): 3.42 (1.06) %ID/g
Pancreas radioactivity ([2]; 5 min after injection): 5.66 (4.30) %ID/g
Small intestine radioactivity ([2]; 5 min after injection): 1.39 (0.27) %ID/g
Spleen radioactivity ([2]; 5 min after injection): 3.09 (1.26) %ID/g
Stomach radioactivity ([2]; 5 min after injection): 0.95 (0.28) %ID/organ
Blood radioactivity ([2]; 20 min after injection): 10.84 (0.20) %ID/g
Bone radioactivity ([2]; 20 min after injection): 2.66 (0.22) %ID/g
Brain radioactivity ([2]; 20 min after injection): 0.43 (0.07) %ID/g
Heart uptake ([2]; 20 min after injection): 23.41 (3.39) %ID/g
Kidney radioactivity ([2]; 20 min after injection): 8.03 (0.09) %ID/g
Large intestine radioactivity ([2]; 20 min after injection): 1.20 (0.04) %ID/g
Liver radioactivity ([2]; 20 min after injection): 6.54 (0.43) %ID/g
Lung radioactivity ([2]; 20 min after injection): 16.21 (1.50) %ID/g
Muscle radioactivity ([2]; 20 min after injection): 3.51 (0.21) %ID/g
Pancreas radioactivity ([2]; 20 min after injection): 9.80 (3.25) %ID/g
Small intestine radioactivity ([2]; 20 min after injection): 1.97 (0.11) %ID/g
Spleen radioactivity ([2]; 20 min after injection): 1.73 (0.55) %ID/g
Stomach radioactivity ([2]; 20 min after injection): 1.06 (0.05) %ID/organ
Blood radioactivity ([2]; 60 min after injection): 10.38 (2.03) %ID/g
Bone radioactivity ([2]; 60 min after injection): 2.42 (0.33) %ID/g
Brain radioactivity ([2]; 60 min after injection): 0.39 (0.04) %ID/g
Heart uptake ([2]; 60 min after injection): 20.92 (3.67) %ID/g
Kidney radioactivity ([2]; 60 min after injection): 6.24 (0.62) %ID/g
Large intestine radioactivity ([2]; 60 min after injection): 1.20 (0.15) %ID/g
Liver radioactivity ([2]; 60 min after injection): 4.34 (0.61) %ID/g
Lung radioactivity ([2]; 60 min after injection): 13.11 (3.05) %ID/g
Muscle radioactivity ([2]; 60 min after injection): 3.87 (0.80) %ID/g
Pancreas radioactivity ([2]; 60 min after injection): 8.04 (3.89) %ID/g
Small intestine radioactivity ([2]; 60 min after injection): 1.88 (0.29) %ID/g
Spleen radioactivity ([2]; 60 min after injection): 1.68 (0.81) %ID/g
Stomach radioactivity ([2]; 60 min after injection): 1.06 (0.17) %ID/organ

— paper PMC8673672, “Synthesis and evaluation of radiogallium-labeled long-chain fatty acid derivatives as myocardial metabolic imaging agents” (PLoS ONE, 2021)
